Results on nine compounds are retold here after ChEMBL document CHEMBL5465560, “Selectivity Literature for EUbOPEN Chemogenomic Library” (2024).

The target in data set [1] is T1, Serine/threonine-protein kinase DCLK1 (Homo sapiens) (UniProt O15075).
T1 sequence (whole entry): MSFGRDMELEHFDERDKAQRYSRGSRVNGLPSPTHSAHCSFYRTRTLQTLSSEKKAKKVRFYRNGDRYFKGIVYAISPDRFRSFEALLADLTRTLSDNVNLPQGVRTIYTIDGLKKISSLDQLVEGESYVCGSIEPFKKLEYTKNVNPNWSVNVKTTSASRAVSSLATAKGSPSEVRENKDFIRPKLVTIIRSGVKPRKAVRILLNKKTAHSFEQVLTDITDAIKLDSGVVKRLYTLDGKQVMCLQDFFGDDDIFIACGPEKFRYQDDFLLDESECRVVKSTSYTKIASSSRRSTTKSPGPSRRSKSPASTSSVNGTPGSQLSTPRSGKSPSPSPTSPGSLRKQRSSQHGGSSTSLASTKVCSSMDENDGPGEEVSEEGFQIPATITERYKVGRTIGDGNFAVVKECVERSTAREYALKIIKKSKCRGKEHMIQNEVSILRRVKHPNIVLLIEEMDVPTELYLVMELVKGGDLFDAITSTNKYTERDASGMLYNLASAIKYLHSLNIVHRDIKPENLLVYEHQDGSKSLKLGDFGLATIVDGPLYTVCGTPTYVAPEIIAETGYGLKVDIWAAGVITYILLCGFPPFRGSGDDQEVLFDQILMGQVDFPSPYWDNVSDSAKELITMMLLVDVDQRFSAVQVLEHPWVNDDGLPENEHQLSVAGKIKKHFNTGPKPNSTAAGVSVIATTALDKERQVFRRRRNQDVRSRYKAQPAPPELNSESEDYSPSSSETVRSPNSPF
The data set is described as follows: Selectivity interaction (KinomeScan (DiscoverX)) EUB0001619a DCLK1. Conditions: at 1 µM.

The target of data set [2] is Androgen receptor (Homo sapiens) (UniProt P10275). The data set is described as follows: Selectivity interaction (Eurofins CEREP Diversity Profile (receptors and ion channels)) EUB0000279b AR. To be noted: at 10 µM.
Sequence of Androgen receptor (Homo sapiens) (P10275 whole entry): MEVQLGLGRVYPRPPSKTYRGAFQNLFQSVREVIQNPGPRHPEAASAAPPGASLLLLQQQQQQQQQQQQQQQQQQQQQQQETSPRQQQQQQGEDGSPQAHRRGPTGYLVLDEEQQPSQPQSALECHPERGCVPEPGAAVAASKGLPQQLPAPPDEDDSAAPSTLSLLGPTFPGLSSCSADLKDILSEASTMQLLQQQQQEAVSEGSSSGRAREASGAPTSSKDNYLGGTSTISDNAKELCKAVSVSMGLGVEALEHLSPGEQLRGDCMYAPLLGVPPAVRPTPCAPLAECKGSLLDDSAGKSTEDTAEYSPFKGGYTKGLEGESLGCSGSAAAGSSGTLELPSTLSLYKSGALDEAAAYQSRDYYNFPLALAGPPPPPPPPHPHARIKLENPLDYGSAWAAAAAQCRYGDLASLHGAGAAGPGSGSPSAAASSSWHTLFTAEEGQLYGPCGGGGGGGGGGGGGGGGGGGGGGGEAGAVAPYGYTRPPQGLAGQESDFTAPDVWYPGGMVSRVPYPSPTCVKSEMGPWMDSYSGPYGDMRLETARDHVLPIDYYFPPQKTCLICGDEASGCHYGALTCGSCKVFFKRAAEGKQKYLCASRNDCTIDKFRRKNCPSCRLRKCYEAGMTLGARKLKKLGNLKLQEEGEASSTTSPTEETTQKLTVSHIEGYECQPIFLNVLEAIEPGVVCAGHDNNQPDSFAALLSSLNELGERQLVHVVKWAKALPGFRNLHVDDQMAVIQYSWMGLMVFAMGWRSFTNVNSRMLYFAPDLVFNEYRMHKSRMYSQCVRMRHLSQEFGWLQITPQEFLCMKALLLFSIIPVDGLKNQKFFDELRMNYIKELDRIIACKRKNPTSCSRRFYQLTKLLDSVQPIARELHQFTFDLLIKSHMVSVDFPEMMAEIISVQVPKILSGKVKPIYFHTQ
Data set [3] has as its target Mitogen-activated protein kinase kinase kinase 11 (Homo sapiens) (UniProt Q16584). Conditions: at 10 µM.
Data set [4] addresses Receptor tyrosine-protein kinase erbB-4 (Homo sapiens, UniProt Q15303). As to the kind of experiment: Selectivity interaction (KinomeScan (DiscoverX)) EUB0000607a ERBB4. Conditions: at 10 µM.
The target of data set [5] is Mitogen-activated protein kinase 14 (Homo sapiens, UniProt Q16539). As to the kind of experiment: Selectivity interaction (ActivX KiNativ screen (kinase selectivity in THP-1 cell lysates)) EUB0000639a MAPK14. Format: subcellular. Conditions: lysate, at 5 µM.
Sequence of Mitogen-activated protein kinase 14 (Q16539 whole entry): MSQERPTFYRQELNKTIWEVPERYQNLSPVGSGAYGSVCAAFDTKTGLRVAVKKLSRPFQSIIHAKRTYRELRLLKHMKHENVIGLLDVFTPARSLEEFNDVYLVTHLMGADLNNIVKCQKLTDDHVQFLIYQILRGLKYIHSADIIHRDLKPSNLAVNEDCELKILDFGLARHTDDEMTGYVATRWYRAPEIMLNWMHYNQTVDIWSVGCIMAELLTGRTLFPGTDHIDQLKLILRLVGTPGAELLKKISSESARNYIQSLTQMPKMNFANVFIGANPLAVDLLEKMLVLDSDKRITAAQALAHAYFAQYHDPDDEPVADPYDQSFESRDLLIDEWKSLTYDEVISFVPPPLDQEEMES
Data set [6] addresses Macrophage-stimulating protein receptor (Homo sapiens, UniProt Q04912). The data set is described as follows: Selectivity interaction (Upstate Kinase Profiler service (Millipore)) EUB0000056c MST1R. Conditions: at 1 µM.
The target in data set [7] is T2, Muscarinic acetylcholine receptor M2 (Homo sapiens) (UniProt P08172).
T2 sequence (whole entry): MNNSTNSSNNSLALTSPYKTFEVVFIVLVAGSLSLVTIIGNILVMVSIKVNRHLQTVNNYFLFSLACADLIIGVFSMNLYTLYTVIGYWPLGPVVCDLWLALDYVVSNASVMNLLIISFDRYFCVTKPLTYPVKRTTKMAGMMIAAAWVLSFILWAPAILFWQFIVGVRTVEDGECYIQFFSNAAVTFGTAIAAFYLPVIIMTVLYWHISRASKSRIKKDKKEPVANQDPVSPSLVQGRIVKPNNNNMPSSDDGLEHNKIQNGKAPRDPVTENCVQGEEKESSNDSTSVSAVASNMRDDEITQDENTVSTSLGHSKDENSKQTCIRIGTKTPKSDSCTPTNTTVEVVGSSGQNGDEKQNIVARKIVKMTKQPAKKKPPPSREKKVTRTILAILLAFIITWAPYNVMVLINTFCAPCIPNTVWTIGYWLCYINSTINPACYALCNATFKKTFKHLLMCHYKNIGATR
The data set is described as follows: Selectivity interaction (Panel of non-epigenetic targets (kinases, GPCRs, ion channels, and transporters, Eurofins) ) EUB0000271b CHRM2. To be noted: at 1 µM.

Another data set deals with hERG (KCNH2) (Homo sapiens, UniProt Q12809). The data set is described as follows: Selectivity interaction (Panel of kinases, GPCRs, ion channels and transporters (enzymatic assay)) EUB0000266bCl KCNH2.
Sequence of hERG (KCNH2) (Q12809 whole entry): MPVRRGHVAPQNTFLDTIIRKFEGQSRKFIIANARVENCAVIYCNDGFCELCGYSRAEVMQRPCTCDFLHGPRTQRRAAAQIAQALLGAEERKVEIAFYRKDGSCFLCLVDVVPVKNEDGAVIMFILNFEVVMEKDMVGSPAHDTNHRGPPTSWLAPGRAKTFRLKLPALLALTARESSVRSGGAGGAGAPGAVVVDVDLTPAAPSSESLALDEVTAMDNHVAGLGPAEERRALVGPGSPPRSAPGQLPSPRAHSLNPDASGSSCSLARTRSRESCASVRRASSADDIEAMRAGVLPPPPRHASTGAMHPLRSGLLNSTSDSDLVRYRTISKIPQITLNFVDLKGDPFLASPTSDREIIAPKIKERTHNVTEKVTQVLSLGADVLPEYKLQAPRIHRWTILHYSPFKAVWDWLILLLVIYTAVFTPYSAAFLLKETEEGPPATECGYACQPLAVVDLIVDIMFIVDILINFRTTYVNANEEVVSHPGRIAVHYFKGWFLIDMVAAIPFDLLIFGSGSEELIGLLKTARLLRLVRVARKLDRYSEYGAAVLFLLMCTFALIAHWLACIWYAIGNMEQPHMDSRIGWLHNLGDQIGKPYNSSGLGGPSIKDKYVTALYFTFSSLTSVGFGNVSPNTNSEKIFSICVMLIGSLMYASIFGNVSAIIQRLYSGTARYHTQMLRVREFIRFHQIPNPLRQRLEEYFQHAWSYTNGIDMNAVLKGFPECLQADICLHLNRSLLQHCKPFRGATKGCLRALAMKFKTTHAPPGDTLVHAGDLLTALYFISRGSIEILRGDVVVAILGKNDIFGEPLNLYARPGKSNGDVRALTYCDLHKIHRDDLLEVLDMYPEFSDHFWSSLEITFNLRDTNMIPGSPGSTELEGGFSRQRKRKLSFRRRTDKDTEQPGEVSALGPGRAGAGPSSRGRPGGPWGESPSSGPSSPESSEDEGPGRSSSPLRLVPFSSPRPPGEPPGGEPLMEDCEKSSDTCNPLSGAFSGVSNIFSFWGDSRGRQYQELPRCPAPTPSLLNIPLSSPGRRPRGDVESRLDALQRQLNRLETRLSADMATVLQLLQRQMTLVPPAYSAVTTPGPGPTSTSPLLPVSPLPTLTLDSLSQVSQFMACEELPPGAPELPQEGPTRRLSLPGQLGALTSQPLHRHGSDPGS
The target in data set [8] is T3, Mitogen-activated protein kinase kinase kinase kinase 2 (Homo sapiens) (UniProt Q12851).
T3 sequence (whole entry): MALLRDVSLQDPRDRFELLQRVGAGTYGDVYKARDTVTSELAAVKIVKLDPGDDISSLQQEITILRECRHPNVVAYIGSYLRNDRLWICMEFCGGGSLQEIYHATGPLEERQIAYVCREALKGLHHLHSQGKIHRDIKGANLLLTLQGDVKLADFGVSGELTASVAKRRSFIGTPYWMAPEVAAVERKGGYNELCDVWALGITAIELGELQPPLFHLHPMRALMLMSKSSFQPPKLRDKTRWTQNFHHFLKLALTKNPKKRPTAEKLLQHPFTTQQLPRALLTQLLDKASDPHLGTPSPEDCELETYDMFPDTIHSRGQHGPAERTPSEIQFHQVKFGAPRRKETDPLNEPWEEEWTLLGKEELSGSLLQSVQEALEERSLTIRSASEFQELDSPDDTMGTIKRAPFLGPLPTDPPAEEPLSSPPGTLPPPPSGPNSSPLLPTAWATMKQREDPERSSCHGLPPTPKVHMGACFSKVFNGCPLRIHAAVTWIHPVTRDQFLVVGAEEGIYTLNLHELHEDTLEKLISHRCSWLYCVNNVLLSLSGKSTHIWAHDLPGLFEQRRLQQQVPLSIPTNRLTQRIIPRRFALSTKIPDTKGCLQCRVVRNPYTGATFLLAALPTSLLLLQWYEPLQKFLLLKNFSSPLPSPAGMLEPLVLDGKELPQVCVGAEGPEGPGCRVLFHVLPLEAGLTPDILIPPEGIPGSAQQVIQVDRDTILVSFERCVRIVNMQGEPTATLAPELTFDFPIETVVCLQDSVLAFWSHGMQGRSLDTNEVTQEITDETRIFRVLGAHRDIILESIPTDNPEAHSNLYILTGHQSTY
As to the kind of experiment: Selectivity interaction (Kinase panel (KiNativ target engagement assay in Jurkat cells)) EUB0001635a MAP4K2. The class given is cell-based. To be noted: Selectivity number of off-targets 0.0, Selectivity number of targets 233.0, Source Knowledge https://www.sciencedirect.com/science/article/pii/S2451945619300674?via%3Dihub, at 1 µM.

The structures appear in SMILES notation.

Sequence of Receptor tyrosine-protein kinase erbB-4 (Q15303 whole entry): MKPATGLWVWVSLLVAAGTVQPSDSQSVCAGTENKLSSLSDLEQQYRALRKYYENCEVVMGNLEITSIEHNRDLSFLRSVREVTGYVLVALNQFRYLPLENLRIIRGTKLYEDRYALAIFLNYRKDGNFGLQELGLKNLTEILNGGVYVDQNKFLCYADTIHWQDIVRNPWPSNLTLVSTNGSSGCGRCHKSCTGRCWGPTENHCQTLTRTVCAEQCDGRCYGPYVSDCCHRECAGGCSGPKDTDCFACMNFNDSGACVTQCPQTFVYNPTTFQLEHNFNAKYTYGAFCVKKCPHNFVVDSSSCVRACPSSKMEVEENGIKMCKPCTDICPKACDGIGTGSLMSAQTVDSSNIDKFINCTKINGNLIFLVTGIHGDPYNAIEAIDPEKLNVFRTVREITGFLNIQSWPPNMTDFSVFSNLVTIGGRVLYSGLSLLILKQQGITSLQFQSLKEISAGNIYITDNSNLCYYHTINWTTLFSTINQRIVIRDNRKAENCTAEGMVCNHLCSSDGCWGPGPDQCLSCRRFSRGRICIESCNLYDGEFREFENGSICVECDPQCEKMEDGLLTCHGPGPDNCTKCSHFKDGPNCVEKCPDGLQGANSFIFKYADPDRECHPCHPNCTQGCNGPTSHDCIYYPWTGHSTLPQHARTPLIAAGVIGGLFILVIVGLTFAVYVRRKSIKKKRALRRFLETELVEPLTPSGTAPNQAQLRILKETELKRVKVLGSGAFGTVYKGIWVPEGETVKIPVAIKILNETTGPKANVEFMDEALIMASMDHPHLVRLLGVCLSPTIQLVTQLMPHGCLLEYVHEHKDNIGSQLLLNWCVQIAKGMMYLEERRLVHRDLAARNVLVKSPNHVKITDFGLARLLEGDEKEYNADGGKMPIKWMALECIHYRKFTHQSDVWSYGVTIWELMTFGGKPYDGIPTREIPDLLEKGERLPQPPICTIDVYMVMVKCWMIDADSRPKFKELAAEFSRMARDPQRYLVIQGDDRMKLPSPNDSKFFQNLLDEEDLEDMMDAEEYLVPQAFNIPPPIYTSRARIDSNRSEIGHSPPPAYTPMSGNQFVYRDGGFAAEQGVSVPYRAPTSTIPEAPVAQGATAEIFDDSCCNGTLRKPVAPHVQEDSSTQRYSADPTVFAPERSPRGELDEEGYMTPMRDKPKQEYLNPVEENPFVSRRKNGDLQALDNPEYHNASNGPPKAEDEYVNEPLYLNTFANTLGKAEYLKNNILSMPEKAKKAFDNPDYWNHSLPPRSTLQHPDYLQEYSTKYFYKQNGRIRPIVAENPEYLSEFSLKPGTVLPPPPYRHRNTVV
Sequence of Mitogen-activated protein kinase kinase kinase 11 (Homo sapiens) (Q16584 whole entry, looked up): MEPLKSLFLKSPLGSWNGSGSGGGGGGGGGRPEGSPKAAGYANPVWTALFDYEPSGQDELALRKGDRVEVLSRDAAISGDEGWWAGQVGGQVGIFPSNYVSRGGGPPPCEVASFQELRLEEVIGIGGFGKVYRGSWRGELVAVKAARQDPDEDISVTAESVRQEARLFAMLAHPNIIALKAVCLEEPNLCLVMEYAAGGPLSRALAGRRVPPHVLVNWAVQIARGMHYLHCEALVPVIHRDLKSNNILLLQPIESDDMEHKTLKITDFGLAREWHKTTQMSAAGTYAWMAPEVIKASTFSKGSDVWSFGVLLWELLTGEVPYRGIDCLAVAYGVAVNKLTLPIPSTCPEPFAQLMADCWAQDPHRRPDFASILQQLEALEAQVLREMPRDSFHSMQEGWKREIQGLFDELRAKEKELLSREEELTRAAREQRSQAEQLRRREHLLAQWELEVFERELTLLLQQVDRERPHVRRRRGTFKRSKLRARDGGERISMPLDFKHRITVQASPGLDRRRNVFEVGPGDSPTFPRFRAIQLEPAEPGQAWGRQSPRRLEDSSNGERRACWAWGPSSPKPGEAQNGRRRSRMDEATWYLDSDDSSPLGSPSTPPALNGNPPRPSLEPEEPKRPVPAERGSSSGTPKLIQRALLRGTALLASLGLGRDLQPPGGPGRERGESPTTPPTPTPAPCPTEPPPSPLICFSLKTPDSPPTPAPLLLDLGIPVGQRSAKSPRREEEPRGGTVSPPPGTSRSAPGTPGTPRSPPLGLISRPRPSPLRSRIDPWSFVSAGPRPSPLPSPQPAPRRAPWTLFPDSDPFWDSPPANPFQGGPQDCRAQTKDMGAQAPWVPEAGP

In [1], `N#Cc1cccc(-c2c[nH]c3ncnc(N4CCOCC4)c23)c1` showed a % of control of 100%.

`CC(=O)c1cc(-c2ccccc2OCC2CC2)c2ncccn12` showed a % of control in [2] of 105%. Take `CCN(CC)CCCCNc1ncc2cc(-c3cc(OC)cc(OC)c3)c(NC(=O)NC(C)(C)C)nc2n1`: in data set [3], the % of control was 100%.

On to `CNC(=O)Nc1ccc(-c2nc(N3CC4CCC(C3)O4)c3cnn(C4CCC5(CC4)OCCO5)c3n2)cc1`, for which the % of control in data set [4] came out at 100%.

In the case of `CC[C@@H]1[C@H](F)C(=O)N[C@@H]1COc1nccc2cc(C(N)=O)c(OC)cc12` [ZIMLOVISERTIB], the % of inhibition in data set [5] is -3.8%. Regarding `Cc1ccc(-c2ccc3c(ccc4sc5c(c43)NC[C@@H](C)NC5=O)n2)cn1`, the % of inhibition in data set [6] is 20%. For `Cc1cc(C)cc([C@@H]2c3cc(C)ccc3NC(=O)CN2C(=O)c2ccc(Br)s2)c1`, in data set [7], the % of inhibition is -5%. For `CCn1c(-c2nc3cc(C(=O)N4CCCC(N)C4)ccc3n2C)cc2ccccc21` (centres undefined), the XC50 at hERG (KCNH2) is 6.31 µM. On to `C=CC(=O)Nc1ccc(C(=O)Nc2[nH]nc3c2CN(C(=O)N[C@H](CN(C)C)c2ccccc2)C3(C)C)cc1`, for which the % of engagement in [8] was -14.9%.
